The text below walks through data of patent US12344600B2, “c-Myc mRNA translation modulators and uses thereof in the treatment of cancer” (Anima Biotech Inc., priority 2022, dated 2025).

The experiment deals with c-Myc. The experiment is described as follows: c-Myc immunofluorescence assay. It is filed as cell-based, human. The conditions noted are these: A549 cells, 24 hours, anti-c-Myc immunofluorescence. The protocol:
A549 human non-small cell lung carcinoma cells were treated for 24 hours with increasing compound concentration, cells were fixed and stained with a nuclei stain (DAPI) and anti-c-Myc fluorescent antibody. The c-Myc signal was quantified by image analysis, and data was exported and analyzed using TIBCO Spotfire® (TIBCO Corporation). Dose response curves were generated and fitted with logaristic regression to calculate potency (EC50 values). Potency values are presented in Table 2 for all compounds and are shown for selected compounds (FIG. 3).
A549 cells were grown in 384-wells plates (Perkin Elmer, Cat. 6057300) for 48 hours, treated with compounds and then fixed for 20 min in 4% paraformaldehyde. After that permeabilization was done using 0.1% Triton X-100 in PBS for 20 min. Primary anti-c-Myc antibody (Abcam, ab32072) staining was performed for 90 min at room temperature. Cells then were washed twice with PBS and incubated with secondary antibody (Abcam, ab150075) for 90 min at room temperature. Nuclei were stained with DAPI for 10 min and washed twice with PBS.
Cell images were taken with Operetta (Perkin Elmer, USA), a wide-field fluorescence microscope at 20× magnification. After acquisition, the images were transferred to Columbus software (Perkin-Elmer) for image analysis. In Columbus, cells were identified by their nucleus, using the “Find Nuceli” module and cytoplasm was detected based on the secondary antibody channel. Subsequently, the fluorescent signal was enumerated in the identified cell region. Then data was exported to a data analysis and visualization software, Tibco Spotfire, USA.
In the case of `CN1CCC[C@H](CN2CC[C@@H](CNC(=O)C3CCN(c4nc(-c5ccc(Cl)cc5)no4)CC3)C2)C1` (single isomer, unassigned) [Compound 470], the “Myc Efficacy (−LogEC50)” value was “++ (++ ≥5 and <6)”.
Take `CN1CCC[C@H](CN2CC[C@H](CNC(=O)C3CCN(c4nc(-c5ccc(Cl)cc5)no4)CC3)C2)C1` (single isomer, unassigned) [Compound 471]: the “Myc Efficacy (−LogEC50)” value is “++ (++ ≥5 and <6)”.
As for `COc1ccc(-c2noc(N3CCC(C(=O)NCCCN4CCCCC4)CC3)n2)cc1` [Compound 101, 1-(3-(4-methoxyphenyl)-1,2,4-oxadiazol-5-yl)-N-(3-(piperidin-1-yl)propyl)piperidine-4-carboxamide], the entry is “+ (+ >3 and <5)”; as for `CCCCN(CC)CCCNC(=O)C1CCN(c2nc(-c3ccc(OC)cc3)no2)CC1` [Compound 102, N-(3-(butyl(ethyl)amino)propyl)-1-(3-(4-methoxyphenyl)-1,2,4-oxadiazol-5-yl)piperidine-4-carboxamide], “+ (+ >3 and <5)”; as for `CCc1ccc(CNC(=O)C2CCN(c3nc(-c4ccc(Cl)cc4)no3)CC2)cc1` [Compound 103, 1-(3-(4-chlorophenyl)-1,2,4-oxadiazol-5-yl)-N-(4-ethylbenzyl)piperidine-4-carboxamide], “+ (+ >3 and <5)”.
As for `CCCN1CCN(C(=O)C2CCN(c3nc(-c4ccc(OC)cc4)no3)CC2)CC1` [Compound 104, (1-(3-(4-methoxyphenyl)-1,2,4-oxadiazol-5-yl)piperidin-4-yl)(4-propylpiperazin-1-yl)methanone], the “Myc Efficacy (−LogEC50)” value was “+ (+ >3 and <5)”.
As for `COc1ccc(-c2noc(N3CCC(C(=O)NCC4CCN(Cc5ccc(C)cc5)C4)CC3)n2)cc1` (stereo not shown) [Compound 105, 1-(3-(4-methoxyphenyl)-1,2,4-oxadiazol-5-yl)-N-((1-(4-methylbenzyl)pyrrolidin-3-yl)methyl)piperidine-4-carboxamide], the entry is “++ (++ ≥5 and <6)”; as for `COc1ccc(-c2noc(N3CCC(C(=O)NC[C@H]4CCN(Cc5ccc(C)cc5)C4)CC3)n2)cc1` [Compound 106, (R)-1-(3-(4-methoxyphenyl)-1,2,4-oxadiazol-5-yl)-N-((1-(4-methylbenzyl)pyrrolidin-3-yl)methyl)piperidine-4-carboxamide], “++ (++ ≥5 and <6)”; as for `COc1ccc(-c2noc(N3CCC(C(=O)NC[C@@H]4CCN(Cc5ccc(C)cc5)C4)CC3)n2)cc1` [Compound 107, (S)-1-(3-(4-methoxyphenyl)-1,2,4-oxadiazol-5-yl)-N-((1-(4-methylbenzyl)pyrrolidin-3-yl)methyl)piperidine-4-carboxamide], “+ (+ >3 and <5)”.
Turning to `COc1ccc(-c2noc(N3CCC(C(=O)N4CCCC4)CC3)n2)cc1` [Compound 109, (1-(3-(4-methoxyphenyl)-1,2,4-oxadiazol-5-yl)piperidin-4-yl)(pyrrolidin-1-yl)methanone], the “Myc Efficacy (−LogEC50)” value is “+ (+ >3 and <5)”.
`COc1ccc(-c2noc(N3CCC(C(=O)N4CCC(C)CC4)CC3)n2)cc1` [Compound 110, (1-(3-(4-methoxyphenyl)-1,2,4-oxadiazol-5-yl)piperidin-4-yl)(4-methylpiperidin-1-yl)methanone]: the “Myc Efficacy (−LogEC50)” value was “+ (+ >3 and <5)”.
In the case of `COc1ccc(-c2noc(N3CCC(C(=O)NCCN(C)C)CC3)n2)cc1` [Compound 111, N-(2-(dimethylamino)ethyl)-1-(3-(4-methoxyphenyl)-1,2,4-oxadiazol-5-yl)piperidine-4-carboxamide], the “Myc Efficacy (−LogEC50)” value is “+ (+ >3 and <5)”.
Next, `COCCCNC(=O)C1CCN(c2nc(-c3ccc(OC)cc3)no2)CC1` [Compound 112, 1-(3-(4-methoxyphenyl)-1,2,4-oxadiazol-5-yl)-N-(3-methoxypropyl)piperidine-4-carboxamide]: “+ (+ >3 and <5)”; `CCN(CC)CCCNC(=O)C1CCN(c2nc(-c3ccc(OC)cc3)no2)CC1` [Compound 113, N-(3-(diethylamino)propyl)-1-(3-(4-methoxyphenyl)-1,2,4-oxadiazol-5-yl)piperidine-4-carboxamide]: “+ (+ >3 and <5)”; `CCN(CC)CCNC(=O)C1CCN(c2nc(-c3ccc(OC)cc3)no2)CC1` [Compound 114, N-(2-(diethylamino)ethyl)-1-(3-(4-methoxyphenyl)-1,2,4-oxadiazol-5-yl)piperidine-4-carboxamide]: “+ (+ >3 and <5)”.
Next, `COc1ccc(-c2noc(N3CCC(C(=O)NCc4ccccn4)CC3)n2)cc1` [Compound 115, 1-(3-(4-methoxyphenyl)-1,2,4-oxadiazol-5-yl)-N-(pyridin-2-ylmethyl)piperidine-4-carboxamide]: “− (− ≤3)”; `COc1ccc(-c2noc(N3CCC(C(=O)NCc4cccnc4)CC3)n2)cc1` [Compound 116, 1-(3-(4-methoxyphenyl)-1,2,4-oxadiazol-5-yl)-N-(pyridin-3-ylmethyl)piperidine-4-carboxamide]: “+ (+ >3 and <5)”; `COc1ccc(-c2noc(N3CCC(C(=O)NCCCN4CCN(C)CC4)CC3)n2)cc1` [Compound 117, 1-(3-(4-methoxyphenyl)-1,2,4-oxadiazol-5-yl)-N-(3-(4-methylpiperazin-1-yl)propyl)piperidine-4-carboxamide]: “+ (+ >3 and <5)”.
As for `CCCCN(CC)CCNC(=O)C1CCN(c2nc(-c3ccc(OC)cc3)no2)CC1` [Compound 119, N-(2-(butyl(ethyl)amino)ethyl)-1-(3-(4-methoxyphenyl)-1,2,4-oxadiazol-5-yl)piperidine-4-carboxamide], the entry is “+ (+ >3 and <5)”; as for `COc1ccc(-c2noc(N3CCC(C(=O)NCc4cccs4)CC3)n2)cc1` [Compound 120, 1-(3-(4-methoxyphenyl)-1,2,4-oxadiazol-5-yl)-N-(thiophen-2-ylmethyl)piperidine-4-carboxamide], “+ (+ >3 and <5)”.
On to `COc1ccc(-c2noc(N3CCC(C(=O)NCc4cccc(OC)c4)CC3)n2)cc1` [Compound 121, N-(3-methoxybenzyl)-1-(3-(4-methoxyphenyl)-1,2,4-oxadiazol-5-yl)piperidine-4-carboxamide], for which the “Myc Efficacy (−LogEC50)” value is “+ (+ >3 and <5)”.
With `COc1ccc(-c2noc(N3CCC(C(=O)NCc4cccc(Cl)c4)CC3)n2)cc1` [Compound 122, N-(3-chlorobenzyl)-1-(3-(4-methoxyphenyl)-1,2,4-oxadiazol-5-yl)piperidine-4-carboxamide], the “Myc Efficacy (−LogEC50)” value was “+ (+ >3 and <5)”.
With `COc1ccc(-c2noc(N3CCC(C(=O)NCc4ccc(Cl)cc4)CC3)n2)cc1` [Compound 123, N-(4-chlorobenzyl)-1-(3-(4-methoxyphenyl)-1,2,4-oxadiazol-5-yl)piperidine-4-carboxamide], the “Myc Efficacy (−LogEC50)” value is “+ (+ >3 and <5)”.
Next, `COc1ccc(-c2noc(N3CCC(C(=O)NCCCN4CCCC(C)C4)CC3)n2)cc1` (stereo not shown) [Compound 124, 1-(3-(4-methoxyphenyl)-1,2,4-oxadiazol-5-yl)-N-(3-(3-methylpiperidin-1-yl)propyl)piperidine-4-carboxamide]: “+ (+ >3 and <5)”.
In the case of `COc1ccc(-c2noc(NCCCN3CCC(Cc4ccccc4)CC3)n2)cc1` [Compound 125, N-(3-(4-benzylpiperidin-1-yl)propyl)-3-(4-methoxyphenyl)-1,2,4-oxadiazol-5-amine], the “Myc Efficacy (−LogEC50)” value was “+ (+ >3 and <5)”.
Next, `CCc1ccc(CNC(=O)C2CCN(c3nc(-c4ccc(OC)cc4)no3)CC2)cc1` [Compound 126, N-(4-ethylbenzyl)-1-(3-(4-methoxyphenyl)-1,2,4-oxadiazol-5-yl)piperidine-4-carboxamide]: “+ (+ >3 and <5)”; `CCCNC(=O)C1CCN(c2nc(-c3ccc(OC)cc3)no2)CC1` [Compound 127, 1-(3-(4-methoxyphenyl)-1,2,4-oxadiazol-5-yl)-N-propylpiperidine-4-carboxamide]: “+ (+ >3 and <5)”; `COc1ccc(-c2noc(N3CCC(C(=O)NCCc4ccccc4)CC3)n2)cc1` [Compound 128, 1-(3-(4-methoxyphenyl)-1,2,4-oxadiazol-5-yl)-N-phenethylpiperidine-4-carboxamide]: “+ (+ >3 and <5)”.
As for `COc1ccc(-c2noc(N3CCC(C(=O)NCCCc4ccccc4)CC3)n2)cc1` [Compound 129, 1-(3-(4-methoxyphenyl)-1,2,4-oxadiazol-5-yl)-N-(3-phenylpropyl)piperidine-4-carboxamide], the entry is “+ (+ >3 and <5)”.
On to `COc1ccc(-c2noc(N3CCC(C(=O)NCCCN(C)c4ccccc4)CC3)n2)cc1` [Compound 130, 1-(3-(4-methoxyphenyl)-1,2,4-oxadiazol-5-yl)-N-(3-(methyl(phenyl)amino)propyl)piperidine-4-carboxamide], for which the “Myc Efficacy (−LogEC50)” value is “+ (+ >3 and <5)”.
For `O=C(C1CCN(c2nc(-c3ccccc3)no2)CC1)N1CCN(Cc2ccccc2)CC1` [Compound 131, (4-benzylpiperazin-1-yl)(1-(3-phenyl-1,2,4-oxadiazol-5-yl)piperidin-4-yl)methanone], the “Myc Efficacy (−LogEC50)” value is “+ (+ >3 and <5)”.
